Key:
Type in all cases: functional
Rattus norvegicus [1] = organism: Rattus norvegicus; experiment: Percentage response to 0.1 mM of quisqualic acid at 2 mM in rat striatum slices.
Rattus norvegicus [2] = organism: Rattus norvegicus; experiment: Concentration at which the compound inhibits half of the response of N-methyl-D-aspartic acid (NMDA)
Rattus norvegicus [3] = organism: Rattus norvegicus; experiment: Percentage response to 30 uM of N-methyl-D-aspartic acid (NMDA) at 2 mM in rat striatum slices.
Rattus norvegicus [4] = organism: Rattus norvegicus; experiment: Concentration at which the compound inhibits half of the response of kainic acid (KA)
Rattus norvegicus [5] = organism: Rattus norvegicus; experiment: Percentage response to 0.1 mM of kainic acid (KA) at 2 mM in rat striatum slices.
Rattus norvegicus [6] = organism: Rattus norvegicus; experiment: Percentage response to 0.5 mM of L-Glutamic acid at 2 mM in rat striatum slices.
Rattus norvegicus [7] = organism: Rattus norvegicus; experiment: Percentage response to 0.1 mM of quisqualic acid at 1 mM in rat striatum slices.
Rattus norvegicus [8] = organism: Rattus norvegicus; experiment: Percentage response to 0.5 mM of L-Glutamic acid at 1 mM in rat striatum slices.
Rattus norvegicus [9] = organism: Rattus norvegicus; experiment: Percentage response to 30 uM of N-methyl-D-aspartic acid (NMDA) at 1 mM in rat striatum slices.
Rattus norvegicus [10] = organism: Rattus norvegicus; experiment: Percentage response to 0.1 mM of kainic acid (KA) at 1 mM in rat striatum slices.
Rattus norvegicus [11] = organism: Rattus norvegicus; experiment: Percentage response to 0.5 mM of L-Glutamic acid at 3 mM in rat striatum slices.
Rattus norvegicus [12] = organism: Rattus norvegicus; experiment: Percentage response to 0.1 mM of quisqualic acid at 3 mM in rat striatum slices.
Rattus norvegicus [13] = organism: Rattus norvegicus; experiment: Percentage response to 0.1 mM of kainic acid (KA) at 3 mM in rat striatum slices.
Rattus norvegicus [14] = organism: Rattus norvegicus; experiment: Percentage response to 30 uM of N-methyl-D-aspartic acid (NMDA) at 3 mM in rat striatum slices.
Rattus norvegicus [15] = organism: Rattus norvegicus; experiment: Percentage response to 0.5 mM of L-Glutamic acid at 1.5 mM in rat striatum slices.
Rattus norvegicus [16] = organism: Rattus norvegicus; experiment: Percentage response to 30 uM of N-methyl-D-aspartic acid (NMDA) at 1.5 mM in rat striatum slices.

Compound | Response (Rattus norvegicus [1]) [%] | Response (Rattus norvegicus [3]) [%] | IC50 (Rattus norvegicus [4]) [mM] | Response (Rattus norvegicus [5]) [%] | Response (Rattus norvegicus [6]) [%] | Response (Rattus norvegicus [7]) [%] | Response (Rattus norvegicus [10]) [%] | other results
CC1(C)OC(=O)C[C@@H]2[C@@H](C(=O)O)NC[C@@H]21 | 94 | <16 | 3 | 66 | 96 | – | – | IC50 (Rattus norvegicus [2]): 0.3 mM
CC1(CI)OC(=O)C[C@@H]2[C@@H](C(=O)O)NC[C@@H]21 (stereo partly drawn) | 96 | <42 | – | <15 | 74 | – | – | –
NC(CCCP(=O)(O)O)C(=O)O (stereo not drawn) | – | – | – | – | – | <91 | 118 | Response (Rattus norvegicus [8]): <64%; Response (Rattus norvegicus [9]): <0%
CC1(CSc2ccccc2)OC(=O)C[C@@H]2[C@H](C(=O)O)NC[C@@H]21 (stereo partly drawn) | – | – | 0.2 | – | – | <53 | <0 | Response (Rattus norvegicus [8]): 87%; Response (Rattus norvegicus [9]): <36%
CC1(CO)OC(=O)C[C@@H]2[C@@H](C(=O)O)NC[C@@H]21 (stereo partly drawn) | – | – | 3 | – | – | – | – | IC50 (Rattus norvegicus [2]): 2 mM; Response (Rattus norvegicus [11]): 106%; Response (Rattus norvegicus [12]): 94%; Response (Rattus norvegicus [13]): <50%; Response (Rattus norvegicus [14]): <36%
CC1(CSc2ccccc2)OC(=O)C[C@@H]2[C@@H](C(=O)O)NC[C@@H]21 (stereo partly drawn) | – | – | – | – | – | 76 | <16 | Response (Rattus norvegicus [15]): 84%; Response (Rattus norvegicus [16]): <10%
CC1(CI)OC(=O)C[C@@H]2[C@H](C(=O)O)NC[C@@H]21 (stereo partly drawn) | 111 | <49 | – | <8 | 79 | – | – | –
